22 compounds from ChEMBL document CHEMBL6127042, “Design, synthesis and antimycobacterial activity of novel benzothiazinones with improved water solubility” (Eur J Med Chem, 2024) can be followed below.

≈ marks a conversion by molar mass, not a printed value.

The subject of series [1] is Mycobacterium tuberculosis. In words: Antitubercular activity against Mycobacterium tuberculosis H37Rv ATCC 27294 assessed as bacterial growth inhibition incubated for 7 days in 7H9 medium by alamar blue staining based microplate fluorometric analysis. The class given is functional. As to conditions: H37Rv ATCC 27294, 168 h, time 7 day.
Series [2] is described as follows: AUC (0 to infinity) in female ICR mouse at 25 mg/kg, po administered as single dose measured upto 24 hrs by HPLC analysis. The class given is ADME, organism-based. The settings on record: in vivo.
The nature of series [3]: Water solubility of the compound in 80% acetronitrile/20% water meausred after 24 hrs by HPLC-UV analysis. The class given is physicochemical. As to conditions: 80% acetonitrile/20% water.
Series [4] can be described thus: Tmax in female ICR mouse at 25 mg/kg, po administered as single dose measured upto 24 hrs by HPLC analysis. The class given is ADME, organism-based. The settings on record: in vivo.
Series [5] is described as follows: Cmax in female ICR mouse at 25 mg/kg, po administered as single dose measured upto 24 hrs by HPLC analysis. The class given is ADME, organism-based. As to conditions: in vivo.
Series [6] can be described thus: Half life in female ICR mouse at 25 mg/kg, po administered as single dose measured upto 24 hrs by HPLC analysis. As to conditions: in vivo. The class given is ADME, organism-based.
Series [7] is described as follows: Cytotoxicity against African green monkey Vero cells assessed as reduction in cell viability incubated for 72 hrs by MTT assay. As to conditions: chlorocebus sabaeus. The class given is toxicity, cell-based.
The nature of series [8]: Acute toxicity in female ICR mouse assessed as lethal dose administered as single oral dose measured for 7 days. The settings on record: in vivo, time 7 day.
Series [9] in a line: Acute toxicity in female ICR mouse assessed as animal death at 1000 mg/kg, po administered as single dose measured for 7 days. The class given is organism-based. The settings on record: in vivo, 168 h, time 7 day.
Series [10] deals with hERG (KCNH2) (Homo sapiens, UniProt Q12809). In words: Inhibition of human ERG expressed in HEK293 cells at 10 uM by electrophysiological method relative to control. The class given is toxicity, cell-based. The settings on record: HEK293 cells expressing hERG.
Series [11] is described as follows: Acute toxicity in female ICR mouse assessed as change in body weight at 1000 mg/kg, po administered as single dose measured for 7 days. The class given is organism-based. The settings on record: in vivo, 168 h, time 7 day.
A short description of series [12]: Water solubility of the compound in 60% acetronitrile/40% water meausred after 24 hrs by HPLC-UV analysis. The class given is physicochemical. The settings on record: 60% acetonitrile/40% water.

Sequence of hERG (KCNH2) (Q12809 whole entry): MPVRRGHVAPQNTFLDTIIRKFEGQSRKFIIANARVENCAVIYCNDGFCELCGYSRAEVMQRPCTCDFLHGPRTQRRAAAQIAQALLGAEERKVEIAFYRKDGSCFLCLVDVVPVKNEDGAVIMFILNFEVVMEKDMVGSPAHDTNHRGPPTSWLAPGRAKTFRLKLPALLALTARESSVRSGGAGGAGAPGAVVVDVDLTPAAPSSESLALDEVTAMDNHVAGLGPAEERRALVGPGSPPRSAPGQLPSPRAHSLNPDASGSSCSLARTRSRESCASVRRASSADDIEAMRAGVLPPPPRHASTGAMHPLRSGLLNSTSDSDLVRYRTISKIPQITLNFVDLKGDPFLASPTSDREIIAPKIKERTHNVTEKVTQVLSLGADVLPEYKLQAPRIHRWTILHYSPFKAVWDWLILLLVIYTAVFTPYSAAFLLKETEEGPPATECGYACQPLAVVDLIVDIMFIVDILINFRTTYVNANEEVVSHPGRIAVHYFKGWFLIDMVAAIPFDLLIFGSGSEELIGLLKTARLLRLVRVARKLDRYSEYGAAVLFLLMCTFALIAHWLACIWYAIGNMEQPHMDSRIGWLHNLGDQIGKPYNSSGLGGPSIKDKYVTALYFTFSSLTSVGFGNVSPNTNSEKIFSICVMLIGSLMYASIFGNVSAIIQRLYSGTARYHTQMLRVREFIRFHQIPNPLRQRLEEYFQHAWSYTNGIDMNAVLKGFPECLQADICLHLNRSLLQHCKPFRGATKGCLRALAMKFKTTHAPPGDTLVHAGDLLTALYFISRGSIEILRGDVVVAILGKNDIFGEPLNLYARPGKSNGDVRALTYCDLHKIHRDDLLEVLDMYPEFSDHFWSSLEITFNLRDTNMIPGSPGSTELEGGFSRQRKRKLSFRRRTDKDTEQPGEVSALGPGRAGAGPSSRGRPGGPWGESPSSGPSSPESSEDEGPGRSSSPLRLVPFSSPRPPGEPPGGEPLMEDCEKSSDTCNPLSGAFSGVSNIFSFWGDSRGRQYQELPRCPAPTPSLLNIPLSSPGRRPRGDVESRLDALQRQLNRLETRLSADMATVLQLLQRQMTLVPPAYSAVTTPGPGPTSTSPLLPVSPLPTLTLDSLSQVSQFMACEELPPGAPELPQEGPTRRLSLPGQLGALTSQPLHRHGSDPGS

Regarding `NNC(=O)c1ccncc1` [ISONIAZID], the MIC in series [1] was determined as 0.342 µM (≈ 0.0469 µg/mL).
For the compound `CON=C1CCC(CN2CCN(c3nc(=O)c4cc(C(F)(F)F)cc([N+](=O)[O-])c4s3)CC2)CC1` (configuration not stated), the total exposure AUC(0-inf) in series [2] was 16900 ng·h/mL. This compound showed a solubility at 24 h in series [3] of 1.6 µg/mL (≈ 3.2 µM). For the same compound, in [4], the Tmax was 0.69 h. Further, the Cmax in series [5] amounted to 8370 ng/mL. In series [6], the half-life is 5.24 h. Moreover, in [1], the MIC is less than 0.035 µM.
`O=c1nc(N2CCN(CC3CCCCC3)CC2)sc2c([N+](=O)[O-])cc(C(F)(F)F)cc12` [MACOZINONE] yielded an AUC(0-inf) in series [2] of 2310 ng·h/mL. Besides, the CC50 at 72 h in [7] is greater than 140 µM. In addition, in series [3], the solubility at 24 h was found to be 1.1 µg/mL (≈ 2.41 µM). In addition, the Tmax in series [4] came to 2 h. Also, in series [5], the peak concentration (Cmax) came out at 295 ng/mL. The same compound showed a half-life in series [6] of 6.43 h. For the same compound, the minimum inhibitory concentration (MIC) in [1] was less than 0.035 µM.
`CC(C)(C)OC(=O)CNC(=O)C(C)(C)ON=C1CCC(CN2CCN(c3nc(=O)c4cc(C(F)(F)F)cc([N+](=O)[O-])c4s3)CC2)CC1` (configuration not stated): in series [7], the cytotoxic concentration (CC50) at 72 h is greater than 94 µM. This compound also had a solubility at 24 h in series [3] of 4 µg/mL (≈ 5.84 µM). Also, in series [1], the MIC is 0.086 µM (≈ 0.0589 µg/mL).
For the compound `O=C(O)CCON=C1CCC(CN2CCN(c3nc(=O)c4cc(C(F)(F)F)cc([N+](=O)[O-])c4s3)CC2)CC1` (configuration not stated), the 50% cytotoxic concentration (CC50) at 72 h in series [7] was greater than 115 µM. The MIC in [1] came out at 0.214 µM (≈ 0.119 µg/mL).
The matching figures for `O=C(O)CNC(=O)CCON=C1CCC(CN2CCN(c3nc(=O)c4cc(C(F)(F)F)cc([N+](=O)[O-])c4s3)CC2)CC1` (configuration not stated): greater than 104 µM and 0.338 µM (≈ 0.208 µg/mL).
`O=C(O)CNC(=O)CON=C1CCC(CN2CCN(c3nc(=O)c4cc(C(F)(F)F)cc([N+](=O)[O-])c4s3)CC2)CC1` (configuration not stated): the minimal inhibitory concentration (MIC) in series [1] was determined as 1.54 µM (≈ 0.925 µg/mL).
Regarding `NCCON=C1CCC(CN2CCN(c3nc(=O)c4cc(C(F)(F)F)cc([N+](=O)[O-])c4s3)CC2)CC1` (configuration not stated), the LD50 at 168 h in series [8] was greater than 1000 mg/kg. In addition, the AUC(0-inf) in [2] came to 3840 ng·h/mL. In addition, the Activity entry is on record as “Non-Toxic” in [9] and “Toxic” in series [11]. For the same compound, in series [4], the time of peak concentration (Tmax) turned out to be 1 h. The same compound gave an inhibition at 10 µM in [10] of 5.66%. In series [5], this compound yielded a Cmax of 798 ng/mL. For the same compound, in series [6], the half-life is 3.6 h. Moreover, the minimum inhibitory concentration (MIC) in [1] was 0.091 µM (≈ 0.0481 µg/mL). The solubility at 24 h in series [12] was greater than 2000 µg/mL.
For the compound `CO[C@H]1/C=C/O[C@@]2(C)Oc3c(C)c(O)c4c(O)c(c(/C=N/N5CCN(C)CC5)c(O)c4c3C2=O)NC(=O)/C(C)=C\C=C\[C@H](C)[C@H](O)[C@@H](C)[C@@H](O)[C@@H](C)[C@H](OC(C)=O)[C@@H]1C` [RIFAMPIN], in series [1], the minimum inhibitory concentration (MIC) is 0.04 µM (≈ 0.0329 µg/mL).
For the compound `O=C(O)CON=C1CCC(CN2CCN(c3nc(=O)c4cc(C(F)(F)F)cc([N+](=O)[O-])c4s3)CC2)CC1` (configuration not stated), the 50% lethal dose (LD50) at 168 h in [8] was greater than 1000 mg/kg. Moreover, the AUC(0-inf) in [2] stood at 1410 ng·h/mL. For the same compound, the CC50 at 72 h in [7] is greater than 118 µM. Further, the Activity entry in series [9] is “Non-Toxic”; in series [11] it was “Toxic”. For the same compound, the solubility at 24 h in series [3] came out at 1200 µg/mL (≈ 2210 µM). For the same compound, the Tmax in series [4] came out at 0.33 h. For the same compound, the inhibition at 10 µM in series [10] turned out to be 5.8%. Also, in series [5], the highest level (Cmax) was 770 ng/mL. Also, the half-life in series [6] is 3.06 h. Also, the MIC in series [1] is less than 0.029 µM.
Turning to `O=C(O)CNC1CCC(CN2CCN(c3nc(=O)c4cc(C(F)(F)F)cc([N+](=O)[O-])c4s3)CC2)CC1` (configuration not stated), the CC50 at 72 h in series [7] is greater than 121 µM. The minimal inhibitory concentration (MIC) in [1] is greater than 18.9 µM.
As to `CC(C)(C)OC(=O)CNC(=O)CON=C1CCC(CN2CCN(c3nc(=O)c4cc(C(F)(F)F)cc([N+](=O)[O-])c4s3)CC2)CC1` (configuration not stated), the CC50 at 72 h in [7] is greater than 98 µM. Also, in series [1], the MIC was 0.044 µM (≈ 0.0289 µg/mL).
As to `CC(C)(C)OC(=O)NCCON=C1CCC(CN2CCN(c3nc(=O)c4cc(C(F)(F)F)cc([N+](=O)[O-])c4s3)CC2)CC1` (configuration not stated), the half-maximal cytotoxic concentration (CC50) at 72 h in series [7] was greater than 102 µM. Moreover, the solubility at 24 h in series [3] was 2.4 µg/mL (≈ 3.82 µM). Moreover, the MIC in [1] is 0.033 µM (≈ 0.0207 µg/mL).
As for `CC(C)(C)OC(=O)CCON=C1CCC(CN2CCN(c3nc(=O)c4cc(C(F)(F)F)cc([N+](=O)[O-])c4s3)CC2)CC1` (configuration not stated), the CC50 at 72 h in series [7] is greater than 104 µM. The minimum inhibitory concentration (MIC) in [1] was less than 0.026 µM.
The matching figures for `C[C@H](NC(=O)CON=C1CCC(CN2CCN(c3nc(=O)c4cc(C(F)(F)F)cc([N+](=O)[O-])c4s3)CC2)CC1)C(=O)OC(C)(C)C` (some centres not stated): greater than 95 µM and 0.181 µM (≈ 0.121 µg/mL).
The matching figures for `C[C@H](NC(=O)C(C)(C)ON=C1CCC(CN2CCN(c3nc(=O)c4cc(C(F)(F)F)cc([N+](=O)[O-])c4s3)CC2)CC1)C(=O)OC(C)(C)C` (some centres not stated): greater than 92 µM and less than 0.023 µM.
`CC(C)(ON=C1CCC(CN2CCN(c3nc(=O)c4cc(C(F)(F)F)cc([N+](=O)[O-])c4s3)CC2)CC1)C(=O)NCC(=O)O` (configuration not stated) gave a solubility at 24 h in series [3] of 530 µg/mL (≈ 843 µM). The minimum inhibitory concentration (MIC) in series [1] came out at 0.653 µM (≈ 0.41 µg/mL).
On to `C[C@H](NC(=O)CON=C1CCC(CN2CCN(c3nc(=O)c4cc(C(F)(F)F)cc([N+](=O)[O-])c4s3)CC2)CC1)C(=O)O` (some centres not stated), for which, in series [1], the MIC was found to be 2.9 µM (≈ 1.79 µg/mL).
As to `COC(=O)CNC1CCC(CN2CCN(c3nc(=O)c4cc(C(F)(F)F)cc([N+](=O)[O-])c4s3)CC2)CC1` (configuration not stated), the minimal inhibitory concentration (MIC) in series [1] was 1.05 µM (≈ 0.573 µg/mL).
On the same count and under the same terms, in the case of `C[C@H](NC(=O)C(C)(C)ON=C1CCC(CN2CCN(c3nc(=O)c4cc(C(F)(F)F)cc([N+](=O)[O-])c4s3)CC2)CC1)C(=O)O` (some centres not stated) it was 1.33 µM (≈ 0.853 µg/mL).
As for `CC(C)(ON=C1CCC(CN2CCN(c3nc(=O)c4cc(C(F)(F)F)cc([N+](=O)[O-])c4s3)CC2)CC1)C(=O)O` (configuration not stated), the half-maximal cytotoxic concentration (CC50) at 72 h in series [7] was greater than 112 µM. Moreover, the solubility at 24 h in series [3] was 490 µg/mL (≈ 857 µM). The minimum inhibitory concentration (MIC) in [1] was 0.114 µM (≈ 0.0652 µg/mL).
As to `CC(C)(C)OC(=O)CNC(=O)CCON=C1CCC(CN2CCN(c3nc(=O)c4cc(C(F)(F)F)cc([N+](=O)[O-])c4s3)CC2)CC1` (configuration not stated), the cytotoxic concentration (CC50) at 72 h in series [7] was greater than 95 µM. Moreover, the minimum inhibitory concentration (MIC) in series [1] is less than 0.026 µM.

The term MIC denotes the lowest concentration that inhibits growth of the organism. Usually AUC(0-inf) stands for the area under the concentration-time curve extrapolated to infinity. As usually defined, the solubility is the concentration that dissolves in the medium under given conditions. The Tmax is the time from dosing to the highest level. In general, Cmax refers to the peak of the concentration-time curve. What is called half-life is the time needed for the level to fall by half in the phase considered. The CC50 is the concentration at which the toxic effect on the cells reaches its halfway point. As usually defined, the LD50 is the dose expected to kill half of the subjects tested. The inhibition is the percentage by which the read-out fell short of the control.
